# In article PMC4149375, “Potential of 2-Hydroxy-3-Phenylsulfanylmethyl-[1,4]-Naphthoquinones against Leishmania (L.) infantum: Biological Activity and Structure-Activity Relationships” (PLoS ONE, 2014):
# Where two headings read alike, the source gives them in different places.
# Legend:
# [1] = system: L. (L.) infantum promastigotes; test: Antileishmanial activity against promastigotes, MTT assay; format: cell-based, Leishmania (L.) infantum; conditions: 48 h at 24°C, highest concentration 200 µM, na = not active, read-out: Promastigotes IC50 (C.I.95%)
# Description: (§1) L. (L.) infantum (MHOM/BR/1972/LD) promastigotes were maintained in M-199 medium supplemented with 10% fetal bovine serum (FBS) and 0.25% hemin at 24°C. L. (L.) infantum was maintained in golden hamsters for up to approximately 60–70 days post-infection. The amastigotes were obtained from the spleens of previously infected hamsters by differential centrifugation. The macrophages were collected from the peritoneal cavity of BALB/c mice by washing with RPMI-1640 (without phenol red and supplemented with 10% FBS). NCTC (clone 929) murine conjunctive cells were maintained in RPMI-1640 (without phenol red and supplemented with 10% FBS) at 37°C in a humidified containing 5% CO2.
# Promastigotes were counted in a Neubauer hemocytometer and seeded at 1×10^6 cells per well in 96-well microplates using miltefosine as standard drug. The tested compounds were incubated at the highest concentration of 200 µM for 48 h at 24°C. Parasite viability was determined using the MTT assay. Briefly, 3-[4,5-dimethylthiazol-2-yl]-2,5-diphenyltetrazolium bromide (MTT) was dissolved in phosphate-buffered saline (PBS) at 5 mg/mL, sterilized through 0.22 µm membranes and incubated with cells (20 µL/well) for 4 h at 24°C. The extraction of the mitochondrial formazan was done with 80 µL of 10% SDS for 18 h at 24°C. The optical density was determined in FilterMax F5 (Molecular Devices) at 570 nm. Promastigotes incubated without compounds were used as the viability control (100% viability) and without cells (blank).
# (§2) The obtained data represent the mean and standard deviation of two independent experiments performed in duplicate. The IC50 and CC50 values were calculated using sigmoid dose-response curves performed using GraphPad Prism version 5.0 (GraphPad Software, San Diego, CA, USA), and the 95% confidence intervals (95% CI) were included. The ANOVA test was performed to evaluate the significance (p<0.05) of data.
# [2] = system: intracellular L. (L.) infantum amastigotes; test: Activity against intracellular amastigotes in infected macrophages, Giemsa counting; format: cell-based, Leishmania (L.) infantum; conditions: for IC50 / Amastigotes IC50 (C.I.95%): BALB/c peritoneal macrophages infected with amastigotes, 120 h at 37°C, na = not active; for IC50: read-out: Amastigotes IC50 (C.I.95%)
# Description: as §1
# The activity against intracellular L. (L.) infantum amastigotes was determined in infected macrophages. Macrophages were obtained as previously described and seeded for 24 h at 1×10^5 cells/well in 16-well slide chambers (Nunc). Amastigotes were isolated from the spleens of previously infected hamsters, separated by differential centrifugation and added to the macrophages at a ratio of 1∶10 (macrophage/amastigotes) for 24 h at 37°C. Non-internalized parasites were removed by washing once with medium and the cells were then incubated with the test compounds for 120 h at 37°C in 5% CO2, using miltefosine as standard drug. At the end of the assay, the cells were fixed in methanol, stained with Giemsa and observed under a light microscope to determine the number of intracellular parasites. The number of amastigotes was determined in 400 macrophages from the drug-treated and control wells [15].
# as §2
# [3] = system: NCTC clone 929 murine conjunctive cells; test: Cytotoxicity against mammalian cells, MTT assay; format: cell-based; conditions: NCTC clone 929, 48 h at 37°C, highest concentration 200 µM; for CC50: read-out: Cytotoxicity CC50 (C.I.95%)
# Description: as §1
# (§3) NCTC cells were seeded at 6×10^4 cells/well in 96-well microplates at 37°C in a 5% CO2. The mammalian cells were incubated with tested compounds to the highest concentration of 200 µM for 48 h at 37°C, using miltefosine as standard drug. The viability of the cells was determined by MTT assay at 570 nm. The selectivity index (SI) was determined considering the following equation: CC50 NCTC cells/IC50 amastigotes.
# as §2
# [4] = Cytotoxicity against mammalian cells, MTT assay; format: cell-based, murine; conditions: mouse, NCTC clone 929 murine conjunctive cells, NCTC clone 929, 48 h at 37°C, highest concentration 200 µM, read-out: Cytotoxicity CC50 (C.I.95%)
# Description: as §1, §3, §2
SMILES,IC50 [1] [µM],IC50 [2] [µM],Cytotoxicity CC50 (C.I.95%) [3],CC50 [3] [µM],Amastigotes IC50 (C.I.95%) [2],IC50 ([1]; Leishmania infantum) [µM],S.I. selectivity index (CC50 mammalian cells/IC50 amastigotes) ([2]; CC50 NCTC cells/IC50 amastigotes),"IC50 ([2]; Leishmania infantum, Peritoneal macrophage, in Mus musculus) [µM]",CC50 at 48 h [4] [µM]
CCCSC(C1=C(O)C(=O)c2ccccc2C1=O)c1ccccc1 (stereo not drawn) [Compound 24],> 200,> 200,lack of toxicity,> 200,,,,,
CSc1ccc(SCC2=C(O)C(=O)c3ccccc3C2=O)cc1 [Compound 6],188,,,100,no activity,,,,
O=C1C(O)=C(C(Sc2ccccc2)c2ccc([N+](=O)[O-])cc2)C(=O)c2ccccc21 (stereo not drawn) [Compound 28],40.1,,,94.2,no activity,,,,
Cc1ccccc1SC(C1=C(O)C(=O)c2ccccc2C1=O)c1ccc([N+](=O)[O-])cc1 (stereo not drawn) [Compound 34],82.9,,,96,no activity,,,,
Cc1ccc(SC(C2=C(O)C(=O)c3ccccc3C2=O)c2ccc([N+](=O)[O-])cc2)cc1 (stereo not drawn) [Compound 25],108,,,42.6,no activity,,,,
Cc1ccc(SCC2=C(O)C(=O)c3ccccc3C2=O)cc1 [Compound 1],> 200,> 200,,89.1,,,,,
O=C1C(O)=C(C(Sc2ccc3ccccc3c2)c2ccc([N+](=O)[O-])cc2)C(=O)c2ccccc21 (stereo not drawn) [Compound 36],> 200,> 200,,58.2,,,,,
O=C1C(O)=C(CSc2ccc(Cl)cc2)C(=O)c2ccccc21 [Compound 4],85.4,,,82.2,no activity,,,,
O=C1C(O)=C(C(Sc2ccc([N+](=O)[O-])cc2)c2ccccc2)C(=O)c2ccccc21 (stereo not drawn) [Compound 19],9.06,,,69.5,no activity,,,,
O=C1C(O)=C(CSc2ccc(F)cc2)C(=O)c2ccccc21 [Compound 5],129,,,97.9,no activity,,,,
"CCCCCCCCCCCCCCCCOP(=O)([O-])OCC[N+](C)(C)C [miltefosine, reference compound]",,,,,,16.9,6.85,17.8,122
Cc1ccccc1SCC1=C(O)C(=O)c2ccccc2C1=O [Compound 13],> 200,> 200,lack of toxicity,> 200,,,,,
CCCSCC1=C(O)C(=O)c2ccccc2C1=O [Compound 9],> 200,> 200,lack of toxicity,> 200,,,,,
O=C1C(O)=C(CSc2ccc3ccccc3c2)C(=O)c2ccccc21 [Compound 15],> 200,> 200,lack of toxicity,> 200,,,,,
O=C1C(O)=C(CSc2ccc([N+](=O)[O-])cc2)C(=O)c2ccccc21 [Compound 7],8.44,,,85.5,no activity,,,,
O=C1C(O)=C(CSc2ccccc2)C(=O)c2ccccc21 [Compound 2],124,,,84.7,no activity,,,,
Cc1cccc(SC(C2=C(O)C(=O)c3ccccc3C2=O)c2ccccc2)c1 (stereo not drawn) [Compound 20],26.4,14.7,,138,,,,,
Cc1cccc(SCC2=C(O)C(=O)c3ccccc3C2=O)c1 [Compound 14],> 200,> 200,lack of toxicity,> 200,,,,,
COc1ccc(SCC2=C(O)C(=O)c3ccccc3C2=O)cc1 [Compound 3],75,,,92.6,no activity,,,,
CCCSC(C1=C(O)C(=O)c2ccccc2C1=O)c1ccc([N+](=O)[O-])cc1 (stereo not drawn) [Compound 35],> 200,> 200,,75.1,,,,,
